In PubChem BioAssay (NCI):
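The compound was tested at five concentrations on cells cultured in 96-well plates, with a 48-hour exposure period. Here, GI50 denotes the concentration required for 50% inhibition of growth. Definition used: TGI = concentration required for complete inhibition of growth.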

How the values were obtained:
Test in all cases: NCI anticancer screen, dose series, 48 h
[1] = system: 786-0 renal
[2] = system: A498 renal
[3] = system: A549 NSCLC
[4] = system: LOX IMVI melanoma
[5] = system: M14 melanoma
[6] = system: NCI-H23 lung
[7] = system: NCI-H460 lung
[8] = system: NCI/ADR-RES ovarian
[9] = system: OVCAR-5 ovarian
[10] = system: PC-3 prostate

Row | SMILES | TGI [1] [µM] | TGI [2] [µM] | TGI [3] [µM] | TGI [4] [µM] | TGI [5] [µM] | TGI [6] [µM] | TGI [7] [µM] | TGI [8] [µM] | TGI [9] [µM] | TGI [10] [µM] | GI50 [1] [µM] | GI50 [2] [µM] | GI50 [4] [µM] | GI50 [5] [µM] | GI50 [7] [µM] | GI50 [8] [µM] | GI50 [10] [µM] | GI50 [3] [µM] | GI50 [6] [µM] | GI50 [9] [µM]
1 | COc1ccc2c(-c3cc4ccccc4o3)cc(=O)oc2c1 | 78.6 | > 92 | > 100 | > 100 | > 100 | > 100 | > 100 | > 100 | > 100 | > 100 |  |  |  |  |  |  |  |  |  | 
2 | Nc1ccc(SC23CC4CC(CC(C4)C2)C3)cc1 | > 100 | > 100 | > 100 | > 100 | > 100 | > 100 | > 100 | > 100 | > 100 | > 100 |  |  |  |  |  |  |  |  |  | 
3 | CCCS(=O)(=O)c1nc(NC2CC2)cc(-c2ccc3c(ccn3C3CC(C)(C)NC(C)(C)C3)c2)n1 | 2.64 | 3.37 |  | 3.17 | 3.24 |  | 3.55 | 4.46 |  | 3.47 | 1.21 | 1.81 | 1.67 | 1.74 | 1.8 | 2 | 1.78 |  |  | 
4 | COc1ccc(NC2=C(Br)C(=O)C(C)=C(C)C2=O)cc1 | 29.9 | 33.6 | 45.7 | 3.17 | 24.8 | 23.7 | 42.6 | 4.65 | 21.8 | 9.05 | 15.7 | 1.62 | 1.67 | 11.7 | 18.8 | 2.04 | 2.78 | 18.7 | 4.41 | 5.07
5 | Oc1ccc(Cc2ccccc2)c2cccnc12 | 6.57 | > 100 | 71.9 | 19 | 10.6 | 57.1 | 17.3 | 13.3 | > 100 | 67.4 | 2.04 | 25.6 | 1.53 | 1.51 | 1.61 | 0.49 | 2.7 | 4.21 | 2.9 | 4.73
6 | CCn1c(-c2nonc2N)nc2ccc(F)cc21 | > 25 | > 25 | > 25 | > 25 | > 25 | > 25 | > 25 | > 25 | > 25 | > 25 | > 25 | 13.6 | > 25 | > 25 | > 25 | > 25 | > 25 | > 25 | > 25 | > 25
7 | Cc1ncc([N+](=O)[O-])n1CCNC(=O)CCCCn1ccnc1[N+](=O)[O-] | > 100 | > 100 | > 100 |  | > 100 | > 100 | > 100 | > 100 | > 100 | > 100 |  |  |  |  |  |  |  |  |  | 
8 | CCCSc1cc(Cl)nc(N)n1 | > 100 | > 100 | > 100 | > 100 | > 100 | > 100 | > 100 | > 100 | > 100 | > 100 | > 100 | > 100 | > 100 | > 100 | > 100 | > 100 | > 100 | > 100 | > 100 | > 100
9 | Cc1ccc(C(=O)CC(Sc2cccc(Cl)c2Cl)c2ccc(Cl)cc2)cc1C (stereo not drawn) | 36.2 | 46.8 | 52.6 | 32.2 | 65.1 | 32.6 | 42.1 | 48.9 | 59.8 | 29.2 | 17.8 | 19.2 | 13.5 | 26.7 | 19.1 | 23.3 | 15.8 | 19.2 | 17.4 | 22.4
10 | COC(=O)C(Cc1ccccc1)N/C=C\C(=O)c1ccc(Cl)cc1 (stereo not drawn) | 61.9 | 75.8 | > 100 | 39.4 | 44.7 | 45.7 | 48.2 | 50.4 | 74.4 | 45 | 23.6 | 31.1 | 19.6 | 19.1 | 20.5 | 19.7 | 18.8 | 50.1 | 18.3 | 24.9
11 | Oc1c(Br)cc(CN(Cc2cc(Br)c(O)c(Br)c2)C2CCCCC2)cc1Br | > 100 | > 100 | > 100 | > 100 | > 100 | > 100 |  | > 100 | > 100 | > 100 |  |  |  |  |  |  |  |  |  | 
12 | CCOC(=O)[C@@H](C)C[C@H](Cc1ccccc1)NC(=O)c1csc([C@@H](C[C@H](C(C)C)N(C)C(=O)[C@@H](NC(=O)[C@H]2CCCCN2C)C(C)(C)C)OC(C)=O)n1 | > 6.61 | < 0.00167 | > 16.7 | > 16.7 | 0.0294 | > 16.7 | > 5.37 |  | > 16.7 | > 16.7 | < 0.00167 | < 0.00167 | < 0.00167 | < 0.00167 | < 0.00167 | 0.00542 | < 0.00167 | < 0.00167 | < 0.00167 | < 0.00167
13 | COc1ccc2c(c1)[C@@]13CCN4CC5=CCO[C@H]6CC(=O)N2[C@H]1[C@H]6[C@H]5C[C@H]43 | > 100 | > 100 | > 100 | > 100 | > 100 | > 100 | > 100 | > 100 | > 100 | > 100 |  |  |  |  |  |  |  |  |  | 
14 | CN1CCN(Cc2ccc(NC(=O)c3ccc(C(C)(C)C)c(C#Cc4cnc5cccnn45)c3)cc2C(F)(F)F)CC1 | 3.24 | 23.4 | 3.57 | 2.87 | 3.44 | 3.89 | 4.52 | 5.86 | 7.18 | 4.12 | 1.67 | 7.18 | 1.52 | 1.8 | 2.13 | 2.34 | 1.89 | 1.91 | 1.85 | 2.71
15 | Cc1sc(C)c(-c2ccc(CO)o2)c1-c1ccc(CO)o1 | > 100 | 0.0973 | > 100 | > 100 | > 100 | > 100 | > 100 | > 100 |  | > 100 |  | 0.0205 | 94.3 | 70.9 | 0.124 | > 84.4 | 32.7 | 2.88 | > 100 | 
